Data taken from patent publication US4539322A, “Dihydropyridine derivatives and their use in treating heart conditions and hypertension” (Pfizer Inc., priority 1982, dated 1985).
Counter-ions that a name gives are not always drawn.

Each compound was assayed on rat aorta (assay: Inhibition of calcium-induced contraction of isolated rat aorta strips (reduction of response to added calcium chloride in K+-containing saline)). Settings: 0.75 h; spirally cut rat aorta strips, 45 millimolar potassium, calcium 2 millimolar, test repeated with compound after 45 minutes; read-out: molar concentration of the compounds required to reduce the response by 50% (IC50).
Format: cell-based
Method: The ability of the compounds to inhibit the movement of calcium into the cell is shown by their effectiveness in reducing the response of isolated heart tissue to an increase in calcium ion concentration in vitro. The test is performed by mounting spirally cut strips of rat aorta with one end fixed and the other attached to a force transducer. The tissue is immersed in a bath of physiological saline solution containing potassium ion s at a concentration of 45 millimolar and no calcium. Calcium chloride is added to the bath with a pipette to give a final calcium ion concentration of 2 millimolar. The change in tension caused by the resulting contraction of the tissue is noted. The bath is drained and replaced with fresh saline solution and, after 45 minutes, the test is repeated with the particular compound under test present in the saline solution. The concentration of compound required to reduce the response by 50% is recorded.
An IC50 of 10 nM was found for CCOC(=O)C1=C(COCCN2CCN(C(=NC)NC#N)CC2)NC(C)=C(C(=O)OC)C1c1ccccc1Cl (stereo not shown) [Example 1, 4-(2-chlorophenyl)-2-[2-[4-(N-cyano-N'-methyl-amidino)piperazin-1-yl]ethoxymethyl]-3-ethoxycarbonyl-5-methoxy-carbonyl-6-methyl-1,4-dihydropyridine, oxalate salt] in this work.
An IC50 of 14 nM was found for CCOC(=O)C1=C(COCCN2CCN(C(=NC#N)N3CCCC3)CC2)NC(C)=C(C(=O)OC)C1c1ccccc1Cl (stereo not shown) [Example 2] in this work.
An IC50 of 10 nM was found for CCOC(=O)C1=C(COCCN2CCN(C(=NC#N)NC(C)C)CC2)NC(C)=C(C(=O)OC)C1c1ccccc1Cl (stereo not shown) [Example 3] in this work.
An IC50 of 7 nM was found for CCOC(=O)C1=C(COCCN2CCN(C(=NC#N)N(C)C)CC2)NC(C)=C(C(=O)OC)C1c1ccccc1Cl (stereo not shown) [Example 4] in this work.
An IC50 of 100 nM was found for CCOC(=O)C1=C(COCCN2CCN(C(N)=NC#N)CC2)NC(C)=C(C(=O)OC)C1c1ccccc1Cl (stereo not shown) [Example 5] in this work.
An IC50 of 100 nM was found for CCOC(=O)C1=C(COCCN2CCN(C(=NC#N)NCCN(C)C)CC2)NC(C)=C(C(=O)OC)C1c1ccccc1Cl (stereo not shown) [Example 6] in this work.
An IC50 of 100 nM was found for CCOC(=O)C1=C(COCCN2CCN(C(=NS(C)(=O)=O)NC)CC2)NC(C)=C(C(=O)OC)C1c1ccccc1Cl (stereo not shown) [Example 7] in this work.
An IC50 of 18.6 nM was found for CCOC(=O)C1=C(COCCN2CCN(C(=NS(=O)(=O)c3ccccc3)NC)CC2)NC(C)=C(C(=O)OC)C1c1ccccc1Cl (stereo not shown) [Example 8] in this work.
An IC50 of 15.1 nM was found for CCOC(=O)C1=C(COCCN2CCN(C(=NC#N)NC)CC2)NC(C)=C(C(=O)OC)C1c1cccc(Cl)c1Cl (stereo not shown) [Example 9] in this work.
An IC50 of 6.3 nM was found for CCOC(=O)C1=C(COCCN2CCN(C(=S)NC)CC2)NC(C)=C(C(=O)OC)C1c1ccccc1Cl (stereo not shown) [Example 10, 4-(2-chlorophenyl)-3-ethoxycarbonyl-5-methoxy-carbonyl-6-methyl-2-[2-(4-(N-methylthiocarbamoyl)-piperazin-1-yl)ethoxymethyl]-1,4-dihydropyridine, hydrochloride salt] in this work.
An IC50 of 13.8 nM was found for CCOC(=O)NC(=S)N1CCN(CCOCC2=C(C(=O)OCC)C(c3ccccc3Cl)C(C(=O)OC)=C(C)N2)CC1 (stereo not shown) [Example 11] in this work.
An IC50 of 2 nM was found for CCOC(=O)C1=C(COCCN2CCN(C(=O)NC(C)(C)C)CC2)NC(C)=C(C(=O)OC)C1c1ccccc1Cl (stereo not shown) [Example 12] in this work.
An IC50 of 6 nM was found for CCOC(=O)C1=C(COCCN2CCN(C(=O)NC)CC2)NC(C)=C(C(=O)OC)C1c1ccccc1Cl (stereo not shown) [Example 13] in this work.
An IC50 of 3.72 nM was found for CCOC(=O)C1=C(COCCN2CCN(C(N)=O)CC2)NC(C)=C(C(=O)OC)C1c1ccccc1Cl (stereo not shown) [Example 14] in this work.
An IC50 of 5.01 nM was found for CCOC(=O)C1=C(COCCN2CCN(C(=O)Nc3ccccc3)CC2)NC(C)=C(C(=O)OC)C1c1ccccc1Cl (stereo not shown) [Example 15] in this work.
An IC50 of 251 nM was found for CCOC(=O)C1=C(COCCN2CCN(C(=O)NS(=O)(=O)c3ccc(C)cc3)CC2)NC(C)=C(C(=O)OC)C1c1ccccc1Cl (stereo not shown) [Example 16] in this work.
An IC50 of 97 nM was found for CCOC(=O)CNC(=O)N1CCN(CCOCC2=C(C(=O)OCC)C(c3ccccc3Cl)C(C(=O)OC)=C(C)N2)CC1 (stereo not shown) [Example 17] in this work.
An IC50 of 6.92 nM was found for CCOC(=O)C1=C(COCCN2CCN(C(=O)NC3CC3)CC2)NC(C)=C(C(=O)OC)C1c1ccccc1Cl (stereo not shown) [Example 18] in this work.
An IC50 of 15.8 nM was found for CCCCNC(=O)N1CCN(CCOCC2=C(C(=O)OCC)C(c3ccccc3Cl)C(C(=O)OC)=C(C)N2)CC1 (stereo not shown) [Example 19] in this work.
An IC50 of 33.1 nM was found for CCOC(=O)C1=C(COCCN2CCN(C(=O)Nc3ccc(C(=O)OCC)cc3)CC2)NC(C)=C(C(=O)OC)C1c1ccccc1Cl (stereo not shown) [Example 20] in this work.
An IC50 of 21.9 nM was found for CCOC(=O)C1=C(COCCN2CCN(C(=O)Nc3ccc(F)cc3)CC2)NC(C)=C(C(=O)OC)C1c1ccccc1Cl (stereo not shown) [Example 21] in this work.
An IC50 of 2.4 nM was found for CCOC(=O)C1=C(COCCN2CCN(C(=O)NC(C)C)CC2)NC(C)=C(C(=O)OC)C1c1ccccc1Cl (stereo not shown) [Example 22] in this work.
An IC50 of 8.51 nM was found for CCOC(=O)C1=C(COCCN2CCN(C(=O)NC3CCCCC3)CC2)NC(C)=C(C(=O)OC)C1c1ccccc1Cl (stereo not shown) [Example 23] in this work.
An IC50 of 14.5 nM was found for CCOC(=O)C1=C(COCCN2CCN(C(=O)Nc3cccnc3)CC2)NC(C)=C(C(=O)OC)C1c1ccccc1Cl (stereo not shown) [Example 24] in this work.
An IC50 of 7.76 nM was found for CCCNC(=O)N1CCN(CCOCC2=C(C(=O)OCC)C(c3ccccc3Cl)C(C(=O)OC)=C(C)N2)CC1 (stereo not shown) [Example 25] in this work.
An IC50 of 13.5 nM was found for CCOC(=O)C1=C(COCC(C)N2CCN(C(=O)NC)CC2)NC(C)=C(C(=O)OC)C1c1ccccc1Cl (stereo not shown) [Example 26] in this work.
An IC50 of 21 nM was found for CCNC(=O)N1CCN(C(C)COCC2=C(C(=O)OCC)C(c3ccccc3Cl)C(C(=O)OC)=C(C)N2)CC1 (stereo not shown) [Example 27] in this work.
An IC50 of 9.3 nM was found for CCOC(=O)C1=C(COCC(C)N2CCN(C(=O)NC(C)C)CC2)NC(C)=C(C(=O)OC)C1c1ccccc1Cl (stereo not shown) [Example 28] in this work.
An IC50 of 15 nM was found for CCOC(=O)C1=C(COCC(C)(C)N2CCN(C(=O)NC)CC2)NC(C)=C(C(=O)OC)C1c1ccccc1Cl (stereo not shown) [Example 29] in this work.
An IC50 of 11 nM was found for CCOC(=O)C1=C(COCCN2CCN(C(=O)NC)CC2)NC(C)=C(C(=O)OC)C1c1ccccc1C(F)(F)F (stereo not shown) [Example 30] in this work.
An IC50 of 2.5 nM was found for CCOC(=O)C1=C(COCCN2CCN(C(=O)NC)CC2)NC(C)=C(C(=O)OC)C1c1cccc(Cl)c1Cl (stereo not shown) [Example 31] in this work.
An IC50 of 50 nM was found for CCOC(=O)C1=C(COCCN2CCN(C(=O)NC)CC2)NC(C)=C(C(=O)OC)C1c1cc(Cl)cc(Cl)c1 (stereo not shown) [Example 32] in this work.
An IC50 of 25 nM was found for CCOC(=O)C1=C(COCCN2CCN(C(=O)NC)CC2)NC(C)=C(C(=O)OC)C1c1c(Cl)cccc1Cl (stereo not shown) [Example 33] in this work.
An IC50 of 17.8 nM was found for CCOC(=O)C1=C(COCCN2CCN(C(=O)NC)CC2)NC(C)=C(C(=O)OC)C1c1cccc(Cl)c1 (stereo not shown) [Example 34] in this work.
An IC50 of 19.5 nM was found for CCOC(=O)C1=C(COCCN2CCN(C(=O)NC)CC2)NC(C)=C(C(=O)OC)C1c1ccccc1F (stereo not shown) [Example 35] in this work.
An IC50 of 1000 nM was found for CCOC(=O)C1=C(COCCN2CCN(C(=O)NC)CC2)NC(C)=C(C(=O)OC)C1c1nccs1 (stereo not shown) [Example 36] in this work.
An IC50 of 7.9 nM was found for CCOC(=O)C1=C(COCCN2CCN(C(N)=O)CC2)NC(C)=C(C(=O)OC)C1c1cccc(Cl)c1Cl (stereo not shown) [Example 37] in this work.
An IC50 of 20.4 nM was found for CCOC(=O)C1=C(COCCN2CCN(CC(=O)Nc3c(C)cccc3C)CC2)NC(C)=C(C(=O)OC)C1c1ccccc1Cl (stereo not shown) [Example 38, 4-(2-chlorophenyl)-2-[2-[4-(N-[2,6-dimethylphenyl]carbamoylmethyl)piperazin-1-yl]ethoxymethyl]-3-ethoxycarbonyl-5-methoxycarbonyl-6-methyl-1,4-dihydropyridine] in this work.
An IC50 of 10.5 nM was found for CCOC(=O)C1=C(COCCN2CCN(CC(=O)OC)CC2)NC(C)=C(C(=O)OC)C1c1ccccc1Cl (stereo not shown) [Example 39] in this work.
An IC50 of 10.5 nM was found for CCOC(=O)C1=C(COCCN2CCN(CC(N)=O)CC2)NC(C)=C(C(=O)OC)C1c1ccccc1Cl (stereo not shown) [Example 40] in this work.
An IC50 of 12.9 nM was found for CCOC(=O)C1=C(COCCN2CCN(C(=O)N(C)C)CC2)NC(C)=C(C(=O)OC)C1c1ccccc1Cl (stereo not shown) [Example 41, 4-(2-chlorophenyl)-2-[2-(4-[N,N-dimethylcarbamoyl]-piperazin-1-yl)ethoxymethyl]-3-ethoxycarbonyl-5-methoxycarbonyl-6-methyl-1,4-dihydropyridine, hydrochloride salt] in this work.
An IC50 of 49 nM was found for CCOC(=O)C1=C(COCCN2CCN(S(=O)(=O)N(C)C)CC2)NC(C)=C(C(=O)OC)C1c1ccccc1Cl (stereo not shown) [Example 42] in this work.
An IC50 of 15.8 nM was found for CCOC(=O)C1=C(COCCN2CCN(S(C)(=O)=O)CC2)NC(C)=C(C(=O)OC)C1c1ccccc1Cl (stereo not shown) [Example 43] in this work.
An IC50 of 85.1 nM was found for CCOC(=O)C1=C(COCCN2CCN(C(=O)c3ccco3)CC2)NC(C)=C(C(=O)OC)C1c1ccccc1Cl (stereo not shown) [Example 44] in this work.
An IC50 of 10 nM was found for CCOC(=O)C(=O)N1CCN(CCOCC2=C(C(=O)OCC)C(c3ccccc3Cl)C(C(=O)OC)=C(C)N2)CC1 (stereo not shown) [Example 45] in this work.
An IC50 of 6.3 nM was found for CCOC(=O)C1=C(COCCN2CCN(C(=O)COC)CC2)NC(C)=C(C(=O)OC)C1c1ccccc1Cl (stereo not shown) [Example 46] in this work.
An IC50 of 13.2 nM was found for CCOC(=O)C1=C(COCCN2CCN(C(=O)c3cccnc3)CC2)NC(C)=C(C(=O)OC)C1c1ccccc1Cl (stereo not shown) [Example 48] in this work.
An IC50 of 10 nM was found for CCOC(=O)C1=C(COCCN2CCN(C(=O)OCC)CC2)NC(C)=C(C(=O)OC)C1c1ccccc1Cl (stereo not shown) [Example 49] in this work.
An IC50 of 5.9 nM was found for CCOC(=O)C1=C(COCCN2CCN(C(=O)N3CCOCC3)CC2)NC(C)=C(C(=O)OC)C1c1ccccc1Cl (stereo not shown) [Example 50] in this work.
An IC50 of 7.94 nM was found for CCOC(=O)C1=C(COCCN2CCN(C=O)CC2)NC(C)=C(C(=O)OC)C1c1ccccc1Cl (stereo not shown) [Example 51, 4-(2-chlorophenyl)-3-ethoxycarbonyl-2-[2-(4-formylpiperazin-1-yl)ethoxymethyl]-5-methoxycarbonyl-6-methyl-1,4-dihydropyridine, bisoxalate salt] in this work.
An IC50 of 9.8 nM was found for CCOC(=O)C1=C(COCCN2CCN(C(=O)CC(C)=O)CC2)NC(C)=C(C(=O)OC)C1c1ccccc1Cl (stereo not shown) [Example 52, 2-[2-(4-acetoacetylpiperazin-1-yl)ethoxymethyl]-4-(2-chlorophenyl)-3-ethoxycarbonyl-5-methoxycarbonyl-6-methyl-1,4-dihydropyridine, hydrochloride hydrate] in this work.
An IC50 of 41.7 nM was found for CCOC(=O)C1=C(COCCN2CCN(S(N)(=O)=O)CC2)NC(C)=C(C(=O)OC)C1c1ccccc1Cl (stereo not shown) [Example 53, 4-(2-chlorophenyl)-3-ethoxycarbonyl-5-methoxycarbonyl-6-methyl-2-[2-(4-sulphamoylpiperazin-1-yl)ethoxymethyl]-1,4-dihydropyridine, hydrochloride hydrate] in this work.
